Measured values: patent US20030022821A1, “Bioactive peptides” (priority 1998, published 2003)
Values after ≈ are worked out from the molar mass of the structure shown. Like-named read-outs stand apart in the source and are kept apart here. Ends that are not written are not given here. Peptide text beside a SMILES is read from it. * marks the point of attachment. Fmoc = O=C(OCC1c2ccccc2-c2ccccc21)*; Acm = CC(=O)NC*

Experiments:
[1] = tested on: Escherichia coli ATCC 25922; type: cell-based
Method in brief: (§1)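 Strains are stored at −70° C, grown to mid-logarithmic phase in 2% Bacto Peptone water, then exposed to peptides in 1% Bacto Peptone water by standard microdilution with 2×10^6 CFU/ml. Each assay runs in triplicate.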

[2] = tested on: Staphylococcus aureus ATCC 25923; type: cell-based
Method in brief: as §1

human red blood cells = experiment: Hemolytic assay; type: cell-based
[3] = tested on: Meth A cells (murine sarcoma cell line); experiment: Cytotoxicity on Meth A cells, MTT method
Procedure: Peptide solutions (0.1 ml) were added and the plates incubated at 37° C. for 30 minutes, 4 hours or 24 hours. The cytotoxicity was measured using the MTT method (Mosmann et al., J. Immunol. (1986) 136, 2348-2357).
Cells in the growth phase were harvested and washed in fresh medium and injected subcutaneously into the abdominal region of the mice.
The cytotoxic effect of the peptides on different murine and human tumor cells were measured using the MTT method (Mosmann et al., J. Immunol. (1986) 136, 2348-2357). MTT is a soluble tetrazolium salt yielding a yellow solution when prepared in media or salt solutions lacking phenol red. Dissolved MTT is converted to an insoluble purple formazan by cleavage of the tetrazolium ring by dehydrogenase enzymes. This water insoluble formazan can be solubilized using isopropanol or other solvents and the dissolved material is measured spectrophotometrically. The absorbance was measured as a function of concentration of converted dye.
Cells were maintained in […] medium containing 10% FBS, 1% L-glutamine and 0.1% penicillin and streptomycin. Cells to be used in the assay were grown to confluency, trypsinated and split to single cell suspension, counted and centrifuged at 1500 rpm for 10 min. […][…] of cell suspension was transferred to each well on a 96-well microtiter plate. The cells were stimulated by adding […] of various concentrations of peptides diluted with assay medium to each well. The final concentrations of peptide were for example: 5, 10, 20, 40, 60, 80, 100, and 200 mg/ml. […] As a negative control only medium was added to the cells, and as a positive control (100% killing) 1% triton X-100 was added. Following an incubation period of 4 h., 20 ml MTT dissolved in PBS at a concentration of 5 mg/ml was added to each well, and the plate was incubated further for 2 h. 130 ml of the supernatant were then removed and […] acid alcohol (0.04-0.1 N HCl in isopropanol) added to each well to dissolve the dark blue crystals. The plate was placed on a shaker for 1 h and read spectrophotometrically at 590 nm in a microtiterplate reader using the Softmaxâ program.

normal fibroblasts = type: cell-based
[4] = read-out: MethA IC 50, Table 7, peptide required to kill 50% of MethA cells

MIC E. coli ([1]; ATCC 25922)	MIC S. aureus ([2]; ATCC 25923)	Compound	EC50 (human red blood cells; red cells of human)	IC50 ([3]; 4 h)	% Hemolysis 10 μg/ml (human red blood cells; red cells of human)	% Hemolysis 100 μg/ml (human red blood cells; red cells of human)	IC50 (normal fibroblasts)	also measured
20 µg/mL (≈ 8.8 µM)	2.5 µg/mL (≈ 1.1 µM)	CSCC[C@H](NC(=O)[C@H](CCCNC(=N)N)NC(=O)[C@H](Cc1c[nH]c2ccccc12)NC(=O)[C@H](C)NC(=O)[C@H](Cc1c[nH]c2ccccc12)NC(=O)[C@H](CCCNC(=N)N)NC(=O)[C@H](CCCNC(=N)N)NC(=O)[C@H](C)NC(=O)[C@H](CCCCN)NC(=O)[C@H](Cc1ccccc1)NC(=O)[C@H](Cc1c[nH]c2ccccc12)NC(=O)[C@H](C)NC(=O)[C@@H]1CCCN1)C(=O)N[C@@H](CCCCN)C(=O)N[C@@H](CCCCN)C(=O)N[C@@H](CC(C)C)C(=O)N[C@@H](C)C(=O)N[C@@H](C)C(=O)O [LFB 14-31 A2,6, 10, 17]	> 440 µM	165 µM				EC50 ([3]; 4 h): 165 µM; IC50 [3, 4]: 165 µM
5 µg/mL (≈ 2.92 µM)	10 µg/mL (≈ 5.85 µM)	CSCC[C@H](NC(=O)[C@H](CCCNC(=N)N)NC(=O)[C@H](Cc1c[nH]c2ccccc12)NC(=O)[C@H](CCC(N)=O)NC(=O)[C@H](Cc1c[nH]c2ccccc12)NC(=O)[C@H](CCCNC(=N)N)NC(=O)[C@H](CCCNC(=N)N)NC(=O)OCC1c2ccccc2-c2ccccc21)C(=O)N[C@@H](CCCCN)C(=O)N[C@@H](CCCCN)C(=O)N[C@@H](CC(C)C)C(=O)O [LFB 20-29 FMOC] (Fmoc-RRWQWRMKKL-OH)			10.3%	28.2%		MethA IC50 ([3]; 4 h): 140 µg/mL
60 µg/mL (≈ 27.6 µM)	10 µg/mL (≈ 4.6 µM)	CSCC[C@H](NC(=O)[C@H](CCCNC(=N)N)NC(=O)[C@H](C)NC(=O)[C@H](CCC(N)=O)NC(=O)[C@H](Cc1c[nH]c2ccccc12)NC(=O)[C@H](CCCNC(=N)N)NC(=O)[C@H](CCCNC(=N)N)NC(=O)[C@H](CSCNC(C)=O)NC(=O)[C@H](CCCCN)NC(=O)[C@H](Cc1ccccc1)NC(=O)OCC1c2ccccc2-c2ccccc21)C(=O)N[C@@H](CCCCN)C(=O)N[C@@H](CCCCN)C(=O)N[C@@H](CC(C)C)C(=O)NCC(=O)N[C@@H](C)C(=O)O [LFB A8 FMOC] (Fmoc-FKC(Acm)RRWQARMKKLGA-OH)			2.87%	7.79%		killing of Meth A cells ([3]; 250 μg/ml at ½ hour and 4 hours): killed most of the cells
>200 µg/mL	>200 µg/mL	CSCC[C@H](NC(=O)[C@H](CCCNC(=N)N)NC(=O)[C@H](C)NC(=O)[C@H](CCC(N)=O)NC(=O)[C@H](Cc1c[nH]c2ccccc12)NC(=O)[C@H](CCCNC(=N)N)NC(=O)[C@H](CCCNC(=N)N)NC(=O)[C@H](CSCNC(C)=O)NC(=O)[C@H](CCCCN)NC(=O)[C@@H](N)Cc1ccccc1)C(=O)N[C@@H](CCCCN)C(=O)N[C@@H](CCCCN)C(=O)N[C@@H](CC(C)C)C(=O)NCC(=O)N[C@@H](C)C(=O)O [LFB A8] (H-FKC(Acm)RRWQARMKKLGA-OH; N-terminus assumed)			2.8%	3.45%		MethA IC50 ([3]; 4 h): 500 µg/mL
		CSCC[C@H](NC(=O)[C@H](CCCNC(=N)N)NC(=O)[C@H](Cc1c[nH]c2ccccc12)NC(=O)[C@H](CCC(N)=O)NC(=O)[C@H](Cc1c(S(=O)(=O)c2c(C)c(C)c3c(c2C)CCC(C)(C)O3)[nH]c2ccccc12)NC(=O)[C@H](CCCNC(=N)N)NC(=O)[C@H](CCCNC(=N)N)NC(=O)[C@H](CSCNC(C)=O)NC(=O)[C@H](CCCCN)NC(=O)[C@@H](N)Cc1ccccc1)C(=O)N[C@@H](CCCCN)C(=O)N[C@@H](CCCCN)C(=O)N[C@@H](CC(C)C)C(=O)NCC(=O)N[C@@H](C)C(=O)O [LFB PMC6]			3.4%	6%		MIC E. coli ([1]; Table 11): 10 µg/mL (≈ 4.29 µM); MIC S. aureus ([2]; Table 11): 10 µg/mL (≈ 4.29 µM); EC 50 (human red blood cells): >1000 µg/mL; EC50 (human red blood cells): > 429 µM; MethA IC50 ([3]; 4 h): 148 µg/mL
18 µg/mL (≈ 7.72 µM)	10 µg/mL (≈ 4.29 µM)	CSCC[C@H](NC(=O)[C@H](CCCNC(=N)N)NC(=O)[C@H](Cc1c(S(=O)(=O)c2c(C)c(C)c3c(c2C)CCC(C)(C)O3)[nH]c2ccccc12)NC(=O)[C@H](CCC(N)=O)NC(=O)[C@H](Cc1c[nH]c2ccccc12)NC(=O)[C@H](CCCNC(=N)N)NC(=O)[C@H](CCCNC(=N)N)NC(=O)[C@H](CSCNC(C)=O)NC(=O)[C@H](CCCCN)NC(=O)[C@@H](N)Cc1ccccc1)C(=O)N[C@@H](CCCCN)C(=O)N[C@@H](CCCCN)C(=O)N[C@@H](CC(C)C)C(=O)NCC(=O)N[C@@H](C)C(=O)O [LFB PMC8]			3.6%	9.79%		MethA IC50 ([3]; 4 h): 150 µg/mL
5 µg/mL (≈ 2.32 µM)	10 µg/mL (≈ 4.65 µM)	CC(=O)NCSC[C@H](NC(=O)[C@H](CCCCN)NC(=O)[C@@H](N)Cc1ccccc1)C(=O)N[C@@H](Cc1c[nH]c2ccccc12)C(=O)N[C@@H](CCCNC(=N)N)C(=O)N[C@@H](Cc1c[nH]c2ccccc12)C(=O)N[C@@H](CCC(N)=O)C(=O)N[C@@H](Cc1c[nH]c2ccccc12)C(=O)N[C@@H](CCCNC(=N)N)C(=O)N[C@@H](Cc1c[nH]c2ccccc12)C(=O)N[C@@H](CCCCN)C(=O)N[C@@H](CCCCN)C(=O)N[C@@H](CC(C)C)C(=O)NCC(=O)N[C@@H](C)C(=O)O [LFB W4, 10, H2N-Phe-Lys-Cys-Trp-Arg-Trp-Gln-Trp-Arg-Trp-Lys-Lys-Leu-Gly-Ala-COOH] (H-FKC(Acm)WRWQWRWKKLGA-OH)			4.45%	27.8%		MIC E. coli ([1]; Table 6): 5 µg/mL (≈ 2.32 µM); MIC S. aureus ([2]; Table 6, unit assumed): 10 µg/mL (≈ 4.65 µM); Meth A IC50 ([3]; 4 h): 500 µg/mL
		PAARKAFRWAWRMLKKAA-OH [LFB 14-31A2,3,6, 10, 17F7K16L14R4]	> 463 µM	24.1 µM			190 µM	Mic E-coli ([1]; ATCC 25922): 15 µM; Mic S. Aureus ([2]; ATCC 25923): 10 µM
		PAIRKAFRIAIRMLKKAA-OH	> 487 µM	47 µM			280 µM	Mic E-coli ([1]; ATCC 25922): 2.5 µM; Mic S. Aureus ([2]; ATCC 25923): 10 µM
		PAIRKAFRIAWRMLKKAA-OH [LFB 14-31A2,6, 10, 17F7I3, 9K16L14R4]	> 470 µM	36 µM			108 µM	Mic E-coli ([1]; ATCC 25922): 5 µM; Mic S. Aureus ([2]; ATCC 25923): 5 µM
		PAIRKAFRWAIRMLKKAA-OH [LFB 14-31A2,6, 10, 17F7I3, 11K16L14R4]	413 µM	16 µM			45 µM	Mic E-coli ([1]; ATCC 25922): 2.5 µM; Mic S. Aureus ([2]; ATCC 25923): 5 µM
		PAIRKAFRWAWRMLKKAA-OH [LFB 14-31A2,6, 10, 17F7I3K16L14R4]	323 µM	9 µM			20 µM	Mic E-coli ([1]; Table 17): 2/4; Mic S. Aureus ([2]; Table 17): 2/4
		PAKRKAFRWAWRMLKKAA-OH [LFB 14-31A2,6, 10, 17F7K3, 16L14R4]	> 451 µM	230 µM			230 µM	
10 µg/mL	10 µg/mL	PAWFKAFRWAWRMLKKAA-OH [LFB 14-31 A2,6, 10, 17F7K16L14]	> 440 µM					IC50 [3, 4]: 28.1 µM
		PAWRKAFRIAIRMLKKAA-OH [LFB 14-31A2,6, 10, 17F7I9, 11K16L14R4]		22 µM			26 µM	
		PAWRKAFRIAWRMLKKAA-OH [LFB 14-31A2,6, 10, 17F7I9K16L14R4]		12 µM			26 µM	Mic E-coli ([1]; ATCC 25922): 5 µM; Mic S. Aureus ([2]; ATCC 25923): <1 µM
		PAWRKAFRKAKRMLKKAA-OH [LFB 14-31A2,6, 10, 17F7K9, 11, 16L14R4]	> 463 µM	> 300 µM			> 463 µM	
		PAWRKAFRWAIRMLKKAA-OH [LFB 14-31A2,6, 10, 17F7I11K16L14R4]		6 µM			15 µM	Mic E-coli ([1]; Table 17): 2/5; Mic S. Aureus ([2]; ATCC 25923): <1 µM
10 µg/mL	2.5 µg/mL	PAWRKAFRWAWRMKKLAA-OH [LFB 14-31 A2,6, 10, 17F7R4]	> 440 µM					IC50 [3, 4]: 30.2 µM
30 µg/mL	20 µg/mL	PAWRKARRWAWRMKKLAA-OH [LFB 14-31 A2,6, 10, 17R4]	> 438 µM					IC50 [3, 4]: 75.8 µM
>100 µg/mL	>100 µg/mL	RRWAWRMKK-OH [LFB 20-28 A4]			0%	1.68%		MethA IC50 ([3]; 4 h): 500 µg/mL
60 µg/mL	>100 µg/mL	RRWQWRMKKL-OH [LFB 20-29]			1.75%	2.74%		MethA IC50 ([3]; 4 h): 500 µg/mL
